The record followed here is US9988381B2, “Five-member-heterocycle fused pyridine compounds, method of producing the same, and use thereof” (SHANGHAI INSTITUTE OF MATERIA MEDICA, CHINESE ACADEMY OF …, priority 2013, dated 2018).

Where two headings read alike, the source gives them in different places.

Assay [1] has as its system EBC-1 cell. The assay can be described thus: Test III: growth inhibition of non-small cell carcinoma EBC-1 cell (SRB). Format: cell-based. Particulars: Homo sapiens; for inhibition at 0.2 µM: read-out: Cell proliferation inhibition rate at 200 nM (%); for inhibition at 1 µM: read-out: Cell proliferation inhibition rate at 1 μM (%). The procedure:
Assays on the growth inhibition of the compounds against gastric tumor cell MKN45, non-small cell carcinoma EBC-1 cell (both are MET persistent activated cell lines due to MET gene amplification, and are Met dependent tumor cell lines, MKN45 cell was purchased from JCRB, Japan, EBC-1 cell was purchased from ATCC, USA) were detected using sulforhodamine B (SRB) staining. […] After incubation with compound for 72 hours, the incubation was terminated, adherent cells were retained and medium was discarded, 10% (w/v) trichloroacetic acid (100 μL pre well) was added, the cells were fixed at 4° C. for 1 hour, then rinsed with distilled water for 5 times, after dried at room temperature, SRB solution (4 mg/mL, dissolved in 1% glacial acetic acid) was added at 100 μL per well, incubated and stained at room temperature for 15 minutes, then rinsed with 1% glacial acetic acid for 5 times to remove any unbound SRB, dried at room temperature, then 10 mM Tris solution was added at 100 μL per well, the optical density (OD) value at 515 nm was measured using VERSMax microplate reader.
Experiments were conducted in duplicates. IC50 value was calculated by fitting the data for a four parameter fit using inhibition curve, the results are shown below in Table 2.

Assay [2] has as its target T1, c-Met kinase domain recombinant protein (Homo sapiens, UniProt P08581).
T1 construct: 50 μL diluted solution of c-Met kinase domain recombinant protein in reaction buffer was added to initiate the reaction
The assay can be described thus: biochemical. The following applies: for inhibition at 0.1 µM: read-out: Average inhibition rate at 0.1 μM (%); for inhibition at 1 µM: read-out: Average inhibition rate at 1 μM (%). The method, boiled down: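 IC50 came from a four-parameter fit of inhibition rates measured by anti-phosphotyrosine (PY99/HRP) ELISA at 490 nm. The reaction ran 1 hour at 37° C with 5 μM ATP, c-Met kinase domain protein and Poly(Glu,Tyr)4:1-coated wells, in HEPES pH 7.4 buffer containing MgCl2, MnCl2, Na3VO4 and DTT.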

T1 sequence (P08581 1078-1345 limits assumed): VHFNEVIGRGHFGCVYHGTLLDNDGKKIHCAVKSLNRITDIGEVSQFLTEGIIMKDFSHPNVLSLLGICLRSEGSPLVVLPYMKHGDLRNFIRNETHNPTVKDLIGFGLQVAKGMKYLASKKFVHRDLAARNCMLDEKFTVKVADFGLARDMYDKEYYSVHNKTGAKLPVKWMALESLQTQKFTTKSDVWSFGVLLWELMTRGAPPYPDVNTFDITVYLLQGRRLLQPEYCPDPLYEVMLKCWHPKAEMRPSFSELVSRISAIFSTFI

By IC50 is commonly meant the concentration that inhibits the measured activity by half. With `CC(C)c1c(-c2cnn(C)c2)cnc2cnn(S(=O)(=O)c3cnc4ccc(-c5cnn(C)c5)cn34)c12` [Example 103, 1-{(6-[(1-methyl)-4-pyrazolyl]-imidazo[1,2-a]pyridine)-3-sulfonyl}-6-[(1-methyl)-4-pyrazolyl]-7-isopropyl-1-H-pyrazolo[4,3-b]pyridine], in assay [1] (EBC-1, 72 h), the inhibition at 0.2 µM was found to be 80.9% and the inhibition at 1 µM worked out at 92.7%. In addition, in assay [2], the half-inhibitory concentration (IC50) was determined as 3.2 ± 0.3 nM, the inhibition at 0.1 µM amounted to 98.5% and the inhibition at 1 µM was determined as 101%.

Take `O=S(=O)(c1cnc2ccc(-c3cn[nH]c3)cn12)n1ncc2ncc(-c3cn[nH]c3)cc21` [Example 104, 1-{[6-(4-pyrazolyl)-imidazo[1,2-a]pyridine]-3-sulfonyl}-6-(4-pyrazolyl)-1-H-pyrazolo[4,3-b]pyridine]: in assay [1] (EBC-1, 72 h), the inhibition at 0.2 µM is 85.7% and the inhibition at 1 µM was 89.2%. In assay [2], the IC50 was found to be 2.1 ± 0.6 nM, the inhibition at 0.1 µM was found to be 99.8% and the inhibition at 1 µM stood at 100%.

Take `Cn1cc(-c2cnc3cnn(S(=O)(=O)c4cnc5ccc(-c6cn[nH]c6)cn45)c3c2)cn1` [Example 105, 1-{[6-(4-pyrazolyl)-imidazo[1,2-a]pyridine]-3-sulfonyl}-6-[(1-methyl)-4-pyrazolyl]-1-H-pyrazolo[4,3-b]pyridine]: in assay [1] (EBC-1, 72 h), the inhibition at 0.2 µM turned out to be 77.7% and the inhibition at 1 µM was determined as 91.5%. Further, in assay [2], the concentration for half-maximal inhibition (IC50) worked out at 2.6 ± 0.4 nM, the inhibition at 0.1 µM was found to be 97.8% and the inhibition at 1 µM was 100%.

Consider `Cn1cc(-c2ccc3ncc(S(=O)(=O)n4ncc5ncc(-c6cn[nH]c6)cc54)n3c2)cn1` [Example 106, 1-{(6-[(1-methyl)-4-pyrazolyl]-imidazo[1,2-a]pyridine)-3-sulfonyl}-6-(4-pyrazolyl)-1-H-pyrazolo[4,3-b]pyridine], for which, in assay [1] (EBC-1, 72 h), the inhibition at 0.2 µM stood at 37% and the inhibition at 1 µM was 85.7%. In assay [2], the IC50 was determined as 1.9 ± 0.1 nM, the inhibition at 0.1 µM amounted to 104% and the inhibition at 1 µM is 101%.

Take `Cn1cc(-c2cnc3[nH]cc(S(=O)(=O)n4ncc5cccnc54)c3c2)cn1` [Example 107, 1-{(5-[(1-methyl)-4-pyrazolyl])-1-H-pyrrolo [2,3-b]pyridine-3-sulfonyl}-1-H-pyrazolo[3,4-b]pyridine]: the inhibition at 0.2 µM in assay [1] (EBC-1, 200 nM, 72 hours) came to 18.9%. For the same compound, the inhibition at 1 µM in assay [1] (EBC-1, 1 μM, 72 hours) is 18.1%. Besides, in assay [2], the inhibition at 0.1 µM was 29.1% and the inhibition at 1 µM turned out to be 88.2%.

With `CCOc1cccc(-c2cnc3cnn(S(=O)(=O)c4cnc5ccc([N+](=O)[O-])cn45)c3c2)c1` [Example 113, 1-[(6-nitro-imidazo[1,2-a]pyridine)-3-sulfonyl]-6-(3-ethoxyphenyl)-1-H-pyrazolo[4,3-b]pyridine], the inhibition at 0.2 µM in assay [1] (EBC-1, 200 nM, 72 hours) came to 7.9%. The inhibition at 1 µM in assay [1] (EBC-1, 1 μM, 72 hours) is 9%. In assay [2], the inhibition at 0.1 µM was 48.6% and the inhibition at 1 µM was determined as 97.7%.

On to `COc1ccc2ncc(S(=O)(=O)n3ncc4ncc(-c5cnn(C)c5)cc43)n2c1` [Example 121, 1-[(6-methoxy-imidazo[1,2-a]pyridine)-3-sulfonyl]-6-[(1-methyl)-4-pyrazolyl]-1-H-pyrazolo[4,3-b]pyridine], for which, in assay [1] (EBC-1, 72 h), the inhibition at 0.2 µM turned out to be 91.6% and the inhibition at 1 µM stood at 92.5%. Besides, in assay [2], the IC50 came out at 9 ± 1 nM, the inhibition at 0.1 µM turned out to be 99% and the inhibition at 1 µM came to 101%.

In the case of `COc1ccc2ncc(S(=O)(=O)n3ncc4ncc(-c5ccc(N6CCOCC6)cc5)cc43)n2c1` [Example 124, 1-[(6-methoxy-imidazo[1,2-a]pyridine)-3-sulfonyl]-6-(4-morpholinylphenyl)-1-H-pyrazolo[4,3-b]pyridine], in assay [1] (EBC-1, 72 h), the inhibition at 0.2 µM stood at 43.1% and the inhibition at 1 µM came out at 92.7%. In assay [2], the half-inhibitory concentration (IC50) came out at 4.7 ± 1 nM, the inhibition at 0.1 µM is 94.4% and the inhibition at 1 µM stood at 99.7%.

As for `COc1ccc(-c2cnc3cnn(S(=O)(=O)c4cnc5ccc(O)cn45)c3c2)cc1` [Example 126, 1-[(6-hydroxy-imidazo[1,2-a]pyridine)-3-sulfonyl]-6-(4-methoxyphenyl)-1-H-pyrazolo[4,3-b]pyridine], in assay [1] (EBC-1, 72 h), the inhibition at 0.2 µM amounted to 35.1% and the inhibition at 1 µM turned out to be 87%. Moreover, in assay [2], the IC50 was found to be 7.3 ± 1.1 nM, the inhibition at 0.1 µM was determined as 100% and the inhibition at 1 µM is 100%.

For `CC(C)C(=O)Oc1ccc2ncc(S(=O)(=O)n3ncc4ncc(-c5cnn(C)c5)cc43)n2c1` [Example 128, 1-[(6-isobutyryloxy-imidazo[1,2-a]pyridine)-3-sulfonyl]-6-[(1-methyl)-4-pyrazolyl]-1-H-pyrazolo[4,3-b]pyridine], in assay [1] (EBC-1, 72 h), the inhibition at 0.2 µM is 80.6% and the inhibition at 1 µM was determined as 87%. For the same compound, in assay [2], the half-maximal inhibitory concentration (IC50) was 2 ± 0.2 nM, the inhibition at 0.1 µM is 99.4% and the inhibition at 1 µM turned out to be 99.3%.

Turning to `Cn1cc(-c2cnc3cnn(S(=O)(=O)c4cnc5ccc(OC(=O)c6ccco6)cn45)c3c2)cn1` [Example 129, 1-[(6-furan-2-acyloxy-imidazo[1,2-a]pyridine)-3-sulfonyl]-6-[(1-methyl)-4-pyrazolyl]-1-H-pyrazolo[4,3-b]pyridine], in assay [1] (EBC-1, 72 h), the inhibition at 0.2 µM turned out to be 79% and the inhibition at 1 µM stood at 86.6%. Besides, in assay [2], the half-inhibitory concentration (IC50) was determined as 2.7 ± 0.5 nM, the inhibition at 0.1 µM was found to be 99.6% and the inhibition at 1 µM worked out at 101%.

Regarding `CCC(=O)Nc1cnc2cnn(S(=O)(=O)c3cnc4ccc(Br)cn34)c2c1` [Example 132, 1-[(6-bromo-imidazo[1,2-a]pyridine)-3-sulfonyl]-6-propionamido-1-H-pyrazolo[4,3-b]pyridine], the inhibition at 0.2 µM in assay [1] (EBC-1, 200 nM, 72 hours) is 48.2%. Besides, the inhibition at 1 µM in assay [1] (EBC-1, 1 μM, 72 hours) amounted to 85.4%; in assay [2], 100%. For the same compound, the inhibition at 0.1 µM in assay [2] was 92.1%.

As to `Cn1cc(-c2ccc3ncc(S(=O)(=O)n4ncc5ncc(NC(=O)c6ccccc6)cc54)n3c2)cn1` [Example 133, 1-{(6-[(1-methyl)-4-pyrazolyl]-imidazo[1,2a]pyridine)-3-sulfonyl}-6-benzamido-1-H-pyrazolo[4,3-b]pyridine], in assay [1] (EBC-1, 72 h), the inhibition at 0.2 µM stood at 86.4% and the inhibition at 1 µM is 87.8%. Further, in assay [2], the half-inhibitory concentration (IC50) stood at 2.6 ± 0.2 nM, the inhibition at 0.1 µM stood at 100% and the inhibition at 1 µM was found to be 100%.

With `Cn1cc(-c2ccc3ncc(S(=O)(=O)n4ncc5ncc(C6=CCN(C7CCCC7)CC6)cc54)n3c2)cn1` [Example 135, 1-{(6-[(1-methyl)-4-pyrazolyl]-imidazo[1,2-a]pyridine)-3-sulfonyl}-6-[(1-cyclopentyl)-4-(1,2,3,6-tetrahydropyridinyl)]-1-H-pyrazolo[4,3-b]pyridine], in assay [1] (EBC-1, 72 h), the inhibition at 0.2 µM is 89.4% and the inhibition at 1 µM was 91.4%. In addition, in assay [2], the IC50 was found to be 2.6 ± 0.2 nM, the inhibition at 0.1 µM was 87.4% and the inhibition at 1 µM worked out at 88.2%.

In the case of `Cn1cc(-c2ccc3ncc(S(=O)(=O)n4ncc5ncc(-c6cnn(C7CCN(C8CCCC8)CC7)c6)cc54)n3c2)cn1` [Example 136, 1-{(6-[(1-methyl)-4-pyrazolyl]-imidazo[1,2-a]pyridine)-3-sulfonyl}-6-{{1-[(1-cyclopentyl)-4-piperidinyl]}-4-pyrazolyl}-1-H-pyrazolo[4,3-b]pyridine], in assay [1] (EBC-1, 72 h), the inhibition at 0.2 µM came to 91.4% and the inhibition at 1 µM stood at 92.4%. Besides, in assay [2], the 50% inhibitory concentration (IC50) is 1.2 ± 0.1 nM, the inhibition at 0.1 µM is 90.2% and the inhibition at 1 µM was 91.3%.

As to `CC(C)N1CC=C(c2cnc3cnn(S(=O)(=O)c4cnc5ccc(-c6cnn(C)c6)cn45)c3c2)CC1` [Example 137, 1-{(6-[(1-methyl)-4-pyrazolyl]-imidazo[1,2-a]pyridine)-3-sulfonyl}-6-[(1-isopropyl)-4-(1,2,3,6-tetrahydropyridinyl)]-1-H-pyrazolo[4,3-b]pyridine], in assay [1] (EBC-1, 72 h), the inhibition at 0.2 µM is 73% and the inhibition at 1 µM was determined as 92.4%. Besides, in assay [2], the IC50 was 1.3 ± 0.1 nM, the inhibition at 0.1 µM is 91.6% and the inhibition at 1 µM was 89.9%.

With `CCN1CCC(n2cc(-c3cnc4cnn(S(=O)(=O)c5cnc6ccc(-c7cnn(C)c7)cn56)c4c3)cn2)CC1` [Example 138, 1-{(6-[(1-methyl)-4-pyrazolyl]-imidazo[1,2-a]pyridine)-3-sulfonyl}-6-{{1-[(1-ethyl)-4-piperidinyl]}-4-pyrazolyl}-1-H-pyrazolo[4,3-b]pyridine], in assay [1] (EBC-1, 72 h), the inhibition at 0.2 µM was found to be 90.9% and the inhibition at 1 µM came to 92.9%. In assay [2], the IC50 is 0.6 ± 0.01 nM, the inhibition at 0.1 µM is 87.7% and the inhibition at 1 µM is 90.5%.
